# Tests used:
# C. parvum = experiment: DNA replication assay (EdU incorporation); format: cell-based, Cryptosporidium parvum; details: 10 mM, positive control
# From the text: Following cell invasion, Cryptosporidium trophozoites grow and multiply to give rise to multinucleated type I meronts (Fig. 3a). The thymidine analog 5-ethynyl-2′-deoxyuridine (EdU) is efficiently incorporated into newly synthesized DNA, and can be detected using click chemistry. We used EdU to measure parasite intracellular DNA replication, as a surrogate for the more complex phenotype of intracellular growth and division. The approach for differentially labeling newly synthesized parasite DNA compared to host cell DNA was to take advantage of the fact that C. parvum replicates more quickly than the nearly confluent host cells. Thus, by adding EdU shortly before egress, it was possible to preferentially label replicating parasites (Fig. 3b, c). DNA staining with Hoechst labeled all of the host and parasite DNA, making it challenging to visualize and quantify parasite DNA. A simple DNA stain would also not distinguish pre-existing DNA from newly synthesized DNA (Fig. 3c). In contrast, EdU labeling only occurred with incorporation into newly synthesized DNA. Incorporated EdU was then easily stained for immunofluorescence and labeled parasites were quantified using high-content microscopy and an NIH ImageJ macro (Fig. 3c, DMSO condition). The […] hydroxyurea (10 mM), a known inhibitor of DNA replication, was used as a positive control for assay validation. […] Compounds with activity in this assay cannot be concluded to specifically target DNA replication, which is a complex phenotype.
# Confluent HCT-8 cell monolayers in glass bottom plates were infected with C. parvum, and compounds were added at EC90 following invasion. At 9 h post-infection, 10 µM EdU was added, followed by incubation for another 2 h, and then washing, fixing, and staining for microscopy. […] 40 × dry objective (NA = 0.7); scale = 5 µm. Arrows indicate selected parasites with EdU-labeled DNA. d Quantification of EdU incorporation. […] Data are mean and SD of 2–5 biological replicates.
# After incubation of cells with EdU for 2 h, cells were washed 3 times with PBS-D-gal and then fixed with PBS containing 4% PFA. Cells were then permeabilized and stained for EdU using the Click-iT® assay kit (Thermo Fisher Scientific, catalog# C10340) as per the manufacturer’s instructions. Cells were then imaged by focusing on parasites (note that the host cell nuclei are in a different focal plane) using a 40 × dry objective (0.7 NA) and EdU, and lectin numbers quantified using ImageJ software and the custom macro in Supplementary Method 1.
# [1] = tested on: HCT-8 cell DNA replication; experiment: Host cell DNA replication (EdU labeling); format: cell-based, human; details: 10 mM, positive control
smiles,measurement,setting,value
NC(=O)NO [hydroxyurea],effect on parasite DNA replication,C. parvum,blocked both parasite and HCT-8 cell DNA replication
same,effect on HCT-8 cell DNA replication,[1],blocked both parasite and HCT-8 cell DNA replication
